Data set [1] has as its target T1, σ1-receptor (Cavia porcellus, UniProt Q60492).
T1 construct: guinea pig brains were homogenized; from tissue; host or cells: guinea pig brain membranes
The data set can be described thus: Sigma-1 receptor binding, [3H](+)-pentazocine, brain membranes. The following applies: for inhibition at 1 µM: 2.5 h, tested compound at 10^-6 M, [3H](+)-pentazocine 0.5 nM, read-out: binding sigma-1 (*) % of radioactively labeled compound replaced by the tested compound; for Ki: [3H](+)-pentazocine, guinea pig brain membranes, read-out: binding sigma-1 Ki. Details: species or system guinea pig.

In data set [2] the target is T2, σ2-receptor (Mus musculus, UniProt Q8VD00).
T2 construct: brains from sigma receptor type I (sigma-1) knockout mice were homogenized; from tissue; host or cells: brain membranes of sigma-1 knockout mice
T2 sequence (Q8VD00 1-176): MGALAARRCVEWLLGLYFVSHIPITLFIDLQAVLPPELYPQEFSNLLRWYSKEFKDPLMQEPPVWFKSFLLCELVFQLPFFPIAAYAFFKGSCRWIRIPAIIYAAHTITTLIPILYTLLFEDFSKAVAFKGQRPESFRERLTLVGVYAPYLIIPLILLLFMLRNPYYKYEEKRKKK
The data set can be described thus: Sigma-2 receptor binding, [3H]-DTG, brains from sigma-1 knockout mice. The following applies: for inhibition at 1 µM: 2 h, tested compound at 10^-6 M, [3H]-DTG 3 nM, read-out: binding sigma-2 (*) % of radioactively labeled compound replaced by the tested compound; for Ki: [3H]-DTG, sigma-1 knockout mouse brain. The method, then:
In brief, brains from sigma receptor type I (sigma-1) knockout mice were homogenized in a volume of 10 mL/g tissue net weight of ice-cold 10 mM Tris-HCl, pH 7.4, containing 320 mM sucrose (Tris-sucrose buffer) with a Potter-Elvehjem homogenizer (10 strokes at 500 r.p.m.) The homogenates were then centrifuged at 1000 g for 10 min at 4° C., and the supernatants were saved. The pellets were resuspended by vortexing in 2 mL/g ice-cold Tris-sucrose buffer and centrifuged again at 1000 g for 10 min. The combined 1000 g supernatants were centrifuged at 31000 g for 15 min at 4° C. The pellets were resuspended by vortexing in 3 mL/g 10 mM Tris-HCl, pH 7.4, and the suspension was kept at 25° C. for 15 min.
The assay tubes contained 10 μL of [^3H]-DTG (final concentration of 3 nM), 400 μL of the tissue suspension (5.3 mL/g in 50 mM Tris-HCl, pH 8.0) to a final assay volume of 0.5 mL. Non-specific binding was defined by addition of a final concentration of 1 μM haloperidol. […] Filters were washed with three times with 5 mL volumes of cold Tris-HCl buffer (10 mM, pH 8.0). Following addition of scintillation cocktail samples were allowed to equilibrate overnight.

Molecules are shown by their SMILES. Structures can show the parent of a compound that is named as a salt.

By Ki is commonly meant the dissociation constant of the complex between target and ligand, obtained from inhibition or displacement. The melting point is the temperature, or range, at which the solid turns liquid.

T1 sequence (Q60492 whole entry): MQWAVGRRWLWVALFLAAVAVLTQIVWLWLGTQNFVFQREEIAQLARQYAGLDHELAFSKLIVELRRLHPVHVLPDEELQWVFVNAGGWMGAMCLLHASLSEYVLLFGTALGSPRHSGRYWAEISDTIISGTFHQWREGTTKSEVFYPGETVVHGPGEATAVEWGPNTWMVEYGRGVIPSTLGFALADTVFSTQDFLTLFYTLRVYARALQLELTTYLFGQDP

As for `O=C(O)C(=O)O.c1ccc(-n2ncc3c2CCC3CCN2CCc3ccccc3C2)cc1` (stereo not shown) [Example 44, 1,2,3,4-tetrahydro-2-(2-(1,4,5,6-tetrahydro-1-phenylcyclopenta[c]pyrazol-4-yl)ethyl)isoquinoline oxalate], the melting point lay within 200.5 to 203 °C. Also, in data set [1], the inhibition at 1 µM came to 106% and the inhibition constant Ki was 2 nM. In data set [2], the inhibition at 1 µM turned out to be 99.4% and the Ki turned out to be 159 nM.

`Fc1ccc(-n2ncc3c2CCCC3CCN2CCC(c3ccccc3)CC2)cc1` (stereo not shown) [Example 72, 1-(4-fluorophenyl)-4,5,6,7-tetrahydro-4-(2-(4-phenylpiperidin-1-yl)ethyl)-1H-indazole] yielded a melting point of 93 to 94.5 °C.

With `O=C(O)C(=O)O.c1ccc(-n2ncc3c2CCC3CCN2Cc3ccccc3C2)cc1` (stereo not shown) [Example 35, 2-(2-(1,4,5,6-tetrahydro-1-phenylcyclopenta[c]pyrazol-4-yl)ethyl)isoindoline oxalate], the melting point fell in the range of 195 to 197 °C. For the same compound, in data set [1], the inhibition at 1 µM is 101% and the inhibition constant Ki came to 9.3 nM. Further, the inhibition at 1 µM in data set [2] turned out to be 26.4%.

Regarding `C(/CN1CCc2ccccc2C1)=C1/CCCc2c1cnn2-c1ccccc1.O=C(O)C(=O)O`, the melting point was 217 to 218 °C.

`c1ccc(-n2ncc3c2CCCC3CCN2CCOCC2)cc1` (stereo not shown) (as salt: oxalate) [Example 2, 4,5,6,7-tetrahydro-4-(2-(morpholin-4-yl)ethyl)-1-phenyl-1H-indazole oxalate] registered a melting point of 150 to 151 °C.

Compound `C[C@@H]1CN(CCC2CCCc3c2cnn3-c2ccc(F)cc2)C[C@H](C)O1.O=C(O)C(=O)O` (stereo partly drawn) [Example 68, cis-1-(4-fluorophenyl)-4,5,6,7-tetrahydro-4-(2-(2,6-dimethylmorpholin-4-yl)ethyl)-1H-indazole oxalate] displayed a melting point of 164 to 169 °C. Moreover, in data set [1], the inhibition at 1 µM is 98% and the Ki turned out to be 14.9 nM. In data set [2], the inhibition at 1 µM came to 99.8% and the inhibition constant (Ki) was determined as 35.2 nM.

Take `Fc1ccc(-n2ncc3c2CCCC3CCN2CCOCC2)cc1.O=C(O)C(=O)O` (stereo not shown) [Example 66, 1-(4-fluorophenyl)-4,5,6,7-tetrahydro-4-(2-(morpholin-4-yl)ethyl)-1H-indazole oxalate]: the melting point lay in the range of 148 to 151 °C. In addition, in data set [1], the inhibition at 1 µM worked out at 98.1% and the inhibition constant Ki stood at 2.4 nM.

For the compound `c1ccc(-n2ncc3c2CCC3CCN2CCSCC2)cc1` (stereo not shown) [Example 97, 1,4,5,6-tetrahydro-1-phenyl-4-[2-(thiomorpholin-4-yl)ethyl]cyclopenta[c]pyrazole oxalate], in data set [1], the inhibition at 1 µM amounted to 102% and the inhibition constant (Ki) stood at 0.62 nM.

Regarding `C(/CN1CCOCC1)=C1/CCCc2c1cnn2-c1ccccc1` [Example 5, (E)-4,5,6,7-tetrahydro-4-(2-(morpholin-4-yl)ethylidene)-1-phenyl-1H-indazole], the melting point was 114 to 116 °C. Further, in data set [1], the inhibition at 1 µM is 94% and the Ki was determined as 37.2 nM. For the same compound, the inhibition at 1 µM in data set [2] was 39%.

Consider `CN(CCC1CCCc2c1cnn2-c1ccc(F)cc1)Cc1ccccc1` (stereo not shown) [Example 69, N-benzyl-2-(1-(4-fluorophenyl)-4,5,6,7-tetrahydro-1H-indazol-4-yl)-N-methylethanamine], for which, in data set [1], the inhibition at 1 µM was determined as 103% and the Ki is 2.6 nM. Besides, in data set [2], the inhibition at 1 µM turned out to be 99.3% and the affinity, expressed as Ki, was 21.7 nM.

Consider `C(/CN1CCC(c2ccccc2)CC1)=C1/CCCc2c1cnn2-c1ccccc1` [Example 17, (E)-4,5,6,7-tetrahydro-1-phenyl-4-(2-(4-phenylpiperidin-1-yl)ethylidene)-1H-indazole], for which, in data set [1], the inhibition at 1 µM worked out at 100% and the Ki came out at 2.5 nM. Besides, in data set [2], the inhibition at 1 µM came out at 83.8% and the inhibitory constant (Ki) was 186 nM.

Take `Clc1ccc(-n2ncc3c2CCCC3CCN2CCC(c3ccccc3)CC2)cc1Cl` (stereo not shown) [Example 4, 1-(3,4-dichlorophenyl)-4,5,6,7-tetrahydro-4-(2-(4-phenylpiperidin-1-yl)ethyl)-1H-indazole oxalate]: the figures for the inhibition at 1 µM in data set [1] and in data set [2] were 100% and 98%, respectively. The inhibition constant (Ki) was 10.6 nM in data set [1] and 316 nM in data set [2].

`Fc1ccc(-n2ncc3c2CCCC3CCN2Cc3ccccc3C2)cc1.O=C(O)C(=O)O` (stereo not shown) yielded a melting point of 176 to 179 °C.

As to `CN(CCC1CCCc2c1cnn2-c1ccccc1)Cc1ccccc1` (stereo not shown) [Example 54, N-benzyl-2-(4,5,6,7-tetrahydro-1-phenyl-1H-indazol-4-yl)-N-methylethanamine], in data set [1], the inhibition at 1 µM turned out to be 105% and the inhibitory constant (Ki) turned out to be 8.7 nM. Moreover, the inhibition at 1 µM in data set [2] is 100%.

`C(/CN1Cc2ccccc2C1)=C1/CCCc2c1cnn2-c1ccccc1` registered a melting point of 130 to 131 °C.

For the compound `c1ccc(-n2ncc3c2CCC3CCN2CCCCC2)cc1` (stereo not shown) [Example 37, 1,4,5,6-tetrahydro-1-phenyl-4-(2-(piperidin-1-yl)ethyl)cyclopenta[c]pyrazole], in data set [1], the inhibition at 1 µM came out at 102% and the Ki was found to be 1.1 nM. In data set [2], the inhibition at 1 µM was found to be 79.9%.

As to `Fc1ccc(-n2ncc3c2CCCC3CCN2Cc3ccccc3C2)cc1` (stereo not shown) [Example 70, 1-(4-fluorophenyl)-4,5,6,7-tetrahydro-4-(2-(isoindolin-2-yl)ethyl)-1H-indazole], the values for the inhibition at 1 µM in data set [1] and in data set [2] were 100% and 108%, respectively. Also, the results for the inhibition constant (Ki) in data set [1] and in data set [2] were 16.2 nM and 14.4 nM, respectively.

As to `C(/CN1CCCCC1)=C1/CCCc2c1cnn2-c1ccccc1` [Example 27, (E)-4,5,6,7-tetrahydro-1-phenyl-4-(2-(piperidin-1-yl)ethylidene)-1H-indazole], the inhibition at 1 µM in data set [1] worked out at 99.6%; in data set [2], 77%. Moreover, the Ki in data set [1] worked out at 7.5 nM.

`CC1CCN(CCC2CCCc3c2cnn3-c2ccccc2)CC1` (stereo not shown) [Example 94, 4,5,6,7-Tetrahydro-4-(2-(4-methylpiperidin-1-yl)ethyl)-1-phenyl-1H-indazole oxalate]: in data set [1], the inhibition at 1 µM worked out at 103% and the Ki was 1.9 nM.

On to `C(/CN1CCC(c2ccccc2)C1)=C1/CCCc2c1cnn2-c1ccccc1` (stereo not shown) [Example 24, (E)-4,5,6,7-tetrahydro-1-phenyl-4-(2-(3-phenylpyrrolidin-1-yl)ethylidene)-1H-indazole], for which, in data set [1], the inhibition at 1 µM is 100% and the inhibition constant (Ki) turned out to be 1.1 nM. In addition, in data set [2], the inhibition at 1 µM stood at 103% and the Ki worked out at 49.5 nM.

With `O=C(O)C(=O)O.c1ccc(N2CCN(CCC3CCCc4c3cnn4-c3ccccc3)CC2)cc1` (stereo not shown), the melting point lay in the range of 177 to 180 °C.

Compound `Clc1ccc(-n2ncc3c2CCCC3CCN2CCC(c3ccccc3)CC2)cc1Cl` (stereo not shown) (as salt: oxalate) [Example 4, 1-(3,4-dichlorophenyl)-4,5,6,7-tetrahydro-4-(2-(4-phenylpiperidin-1-yl)ethyl)-1H-indazole oxalate] gave a melting point of 133 to 134 °C.

As for `CN(CCC1CCc2c1cnn2-c1ccccc1)Cc1ccccc1` (stereo not shown) [Example 52, N-benzyl-2-(1,4,5,6-tetrahydro-1-phenylcyclopenta[c]pyrazol-4-yl)-N-methylethanamine], the values for the inhibition at 1 µM in data set [1] and in data set [2] were 106% and 104%, respectively. In addition, the Ki in data set [1] was 3.9 nM.

The compound `C(/CN1CCC(c2ccccc2)C1)=C1/CCCc2c1cnn2-c1ccccc1.O=C(O)C(=O)O` (stereo not shown) displayed a melting point of 178 to 181 °C.

As for `CC1CCN(CCC2CCc3c2cnn3-c2ccccc2)CC1` (stereo not shown) [Example 99, 1,4,5,6-tetrahydro-4-(2-(4-methylpiperidin-1-yl)ethyl)-1-phenylcyclopenta[c]pyrazole oxalate], in data set [1], the inhibition at 1 µM turned out to be 102% and the Ki is 1.5 nM.

`O=C(O)C(=O)O.c1ccc(CN2CCN(CCC3CCc4c3cnn4-c3ccccc3)CC2)cc1` (stereo not shown): the melting point is 215 to 218 °C.

Turning to `c1ccc(-n2ncc3c2CCC3CCN2CCCC2)cc1` (stereo not shown) [Example 40, 1,4,5,6-tetrahydro-1-phenyl-4-(2-(pyrrolidin-1-yl)ethyl)cyclopenta[c]pyrazole oxalate], in data set [1], the inhibition at 1 µM stood at 101% and the inhibition constant Ki is 3.5 nM. Further, the inhibition at 1 µM in data set [2] was 97.3%.

`Cn1ncc2c1CCCC2CCN1CCOCC1.O=C(O)C(=O)O` (stereo not shown) came in with a melting point of 137.7 to 139.3 °C.

In turn, `O=C(O)C(=O)O.c1ccc(-n2ncc3c2CCCC3CCN2CCOCC2)cc1` (single isomer, unassigned; (+)) [Example 74, (+)-4,5,6,7-tetrahydro-4-(2-(morpholin-4-yl)ethyl)-1-phenyl-1H-indazole oxalate] displayed a melting point of 175 to 176 °C.
